Measurements reported in patent US8785388B2, “TAT-BH3 methods for treating arthritis” (Saint Louis University, priority 2007, dated 2014).
Square brackets hold non-standard residues; d marks the D form. Peptide text beside a SMILES is read from it. Orn = NCCC[C@H](N)C(=O)O

Tests used:
[1] = test system: K/B×N serum transfer-induced arthritis; test: K/B×N serum transfer-induced arthritis, ankle circumference (joint swelling); format: in vivo, mice; conditions: for reduction of development of arthritis: day 4
From the text: The seven-week-old progeny from homozygous KRN TCR transgenic mice (C57BL/6 background) crossed with non-obese diabetes (NOD) mice (K/B×N) were euthanized, peripheral blood was isolated, and serum were collected and pooled. One hundred and fifty microliters of K/B×N serum were intraperitoneally injected on each flank of 6-week old wt mice.
(§1) At each time point and prior to euthanasia, the degree of arthritis as indicated by joint swelling was quantitated by measuring two perpendicular diameters of the ankles using a caliper (Lange Caliper: Cambridge Scientific Industries, Cambridge Mass.). Joint circumference was calculated using the geometric formula of ellipse circumference (2πX √(a^2+b^2)/2). Following euthanasia, serum was isolated from peripheral blood by cardiac stick and ankle joints were removed. One of the ankle joints was fixed in 10% neutral buffered formalin for 24 hours, decalcified in EDTA-decalcification buffer for two weeks, embedded in paraffin, and sectioned. The other ankle joint was placed in liquid nitrogen, grounded into a fine powder by mortal and pestle, digested in protein lysis buffer ([…], 0.5% NP-40, 50 mM Tris, and 2 mM EDTA) in the presence of phosphatase and protease inhibitors, and homogenized on ice for 20 seconds. To examine any toxicity due to systemic delivery of TAT-Bim peptides, alkaline phosphatase (ALP), […] (AST), alanine aminotransferase (ALT), and blood urea nitrogen levels were measured.
Therefore, peptides to the BH3 domain of Bim were used that are fused to polycationic peptide derived from HIV-1 TAT. These peptides have shown to activate Bak and Bax, suppress Bcl-2 and Mcl-1, induce mitochondrial permeability, and release mitochondrial cytochrome c. Mice were intraperitoneally injected with K/B×N serum to induce the effector phase of inflammatory arthritis.

[2] = test system: K/B×N serum transfer-induced arthritis; test: Histopathological scoring of ankle sections (H&E, safranin O/methyl green); format: in vivo, mice
Procedure: (§2) Paraffin embedded ankle or liver sections were stained with hematoxylin and eosin (H&E), Safranin O and methyl green. Histopathological scoring was performed and ankle sections were evaluated by examining at least 3 sections/ankle and 3 fields/section at 400× magnification. H&E ankle sections were scored on a 0-5 scale for inflammation, with 0=normal, 1=minimal infiltration, 2=mild infiltration, 3=moderate infiltration, […], mad 5=severe infiltration. Bone erosion was scored on a 0-5 scale by viewing H&E ankle sections, with 0=no or normal bone resorption, 1=small areas of resorption, 2=more numerous areas of resorption, 3=obvious resorption, 4=full thickness defects in the bone without distortion of the profile, 5=full thickness defects in the bone with distortion of the profile. H&E ankle stained sections were scored on a 0-5 scale for pannus formation, with 0=no pannus formation, 1=minimal pannus formation, 2=mild pannus formation, 3=moderate pannus formation, 4=marked pannus formation, and 5=severe pannus formation. H&E and Safranin 0 and methyl green sections were scored on a 0-5 scale for cartilage damage, with 0=no damage, 1-2=superficial cartilage destruction, 3-4=cartilage destruction to middle zone, 5=cartilage destruction to tide mark. Polymorphonuclear (PMN) leukocyte infiltration: 0=no PMNs, 1=rare scattered PMNs, 2=more frequent scattered PMNs, 3=small clusters of PMNs, 4=larger clusters of PMNs, mad 5=sheets of PMNs (abscess). Histopathological scoring was conducted on an Olympus BX40 microscope (1000×). Photographs were taken on a Nikon microscope equipped with the Nikon digital camera DMX 1200.
To accurately assess the degree of inflammation and destruction of cartilage and bone, ankle sections were examined using a histopathological scoring system on hematoxylin and eosin (H& E) or safranin O-methyl green stained ankle sections.

[3] = test system: macrophages in arthritic joints; test: Macrophage numbers in ankle sections stained for F4/80 antigen; format: in vivo, mice
From the text: FIG. 4A is representative photomicrograph of ankle sections stained for F4/80 antigen from saline- and BH3-peptide treated mice.
TAT-BH3 peptides treatment reduces the numbers of myeloid cells in arthritic joints. Neutrophils and macrophages are required for the development of K/B×N serum transfer induced arthritis 40-42. To this end, the numbers of polymorphonuclear cell and macrophages in saline and BH3 peptide arthritic mice were quantified. […] The milieu of the RA joint is crucial for the initiation and the perpetuation of inflammatory arthritis. Previous studies have shown that mice lacking Bim display increased levels of pro-inflammatory factors in the joint that is associated with increased numbers of neutrophils and macrophages and more articular destruction.

[4] = test system: IL-1β, TNFα, MCP-1, KC, MMP-3; test: ELISA of pro-inflammatory molecules in ankle extracts; format: in vivo, mouse; parameters: IL-1β / TNFα / MCP-1 / KC / MMP-3: unit not given here; conditions: ankle joints
Procedure: as §1
For detection of mouse IL-1β, TNFα, MCP-1, KC, or MMP-3 in ankle extracts, sandwich ELISAs were performed according to the manufacturer's instructions (R & D Systems, Minneapolis, Minn.). The sensitivity for all cytokines was 15.6 pg/mL for IL-1β and KC, 7.813 pg/mL for TNFα and MCP-1, and 0.312 ng/mL for MMP3. ELISAs were quantitated by absorbance at 450 nm on a microplate reader (BioRad, Hercules, Calif.). Data obtained using ELISA on ankle extracts were normalized by the total protein concentration (μg/μL) for each individual ankle extract.
Mice were euthanized at seven days post-serum transfer. Ankle joints from each mouse were isolated, snap frozen, grounded into a fine powder, lysed, and examined for IL-1β, TNFα, MCP-1, KC, and MMP-3 production using an ELISA. Data are shown as μg/μL per joint. Values represent the mean±standard error, which were compared by Student's t-test.

[5] = Toxicity: serum ALP, AST, ALT, blood urea nitrogen and liver histology in arthritic mice; format: in vivo
Procedure: as §1, §2

[6] = target: Mcl-1 (Homo sapiens, UniProt Q07820); test: Affinity for Mcl-1; format: binding; conditions: statement without data
Mcl-1, sequence (Q07820 whole entry, species assumed): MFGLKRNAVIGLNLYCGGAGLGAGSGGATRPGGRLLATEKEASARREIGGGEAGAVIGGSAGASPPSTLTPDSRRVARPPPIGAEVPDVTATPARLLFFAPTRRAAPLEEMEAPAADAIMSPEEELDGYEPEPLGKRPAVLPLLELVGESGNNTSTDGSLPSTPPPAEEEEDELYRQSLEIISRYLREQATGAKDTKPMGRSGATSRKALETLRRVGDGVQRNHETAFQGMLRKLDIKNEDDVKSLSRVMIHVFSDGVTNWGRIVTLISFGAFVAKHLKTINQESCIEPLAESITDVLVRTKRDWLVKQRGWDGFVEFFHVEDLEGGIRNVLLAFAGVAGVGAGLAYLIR

[7] = test system: peripheral blood cells; test: Peripheral blood cell counts (flow cytometry, hematology analyzer); format: in vivo, mice; conditions: as compared to TAT-inactive BH3 and saline
[8] = as compared to saline or TAT-inactive BH3
[9] = as compared to TAT-inactive BH3
[10] = seven days post-serum transfer, mean ± standard error
[11] = TAT-BH3 vs TAT-inactive BH3 and saline

Q: With `CC[C@H](C)[C@H](NC(=O)[C@H](CCCNC(=N)N)NC(=O)[C@H](CCCNC(=N)N)NC(=O)[C@H](CC(C)C)NC(=O)[C@H](CCC(=O)O)NC(=O)[C@H](CCC(N)=O)NC(=O)[C@H](C)NC(=O)[C@@H](NC(=O)[C@H](Cc1c[nH]c2ccccc12)NC(=O)[C@@H](NC(=O)[C@H](CCC(=O)O)NC(=O)[C@H](CCCNC(=N)N)NC(=O)[C@H](CCCNC(=N)N)NC(=O)[C@H](CCCNC(=N)N)NC(=O)[C@H](CCCN)NC(=O)[C@H](CCCNC(=N)N)NC(=O)[C@H](CCCNC(=N)N)NC(=O)[C@H](CCCCN)NC(=O)[C@H](CCCCN)NC(=O)[C@H](CCCNC(=N)N)NC(C)=O)[C@@H](C)CC)[C@@H](C)CC)C(=O)NCC(=O)N[C@@H](CC(=O)O)C(=O)N[C@@H](CCC(=O)O)C(=O)N[C@@H](Cc1ccccc1)C(=O)N[C@@H](CC(N)=O)C(=O)N[C@@H](C)C(=O)N[C@@H](Cc1ccc(O)cc1)C(=O)N[C@@H](Cc1ccc(O)cc1)C(=O)N[C@@H](C)C(=O)N[C@@H](CCCNC(=N)N)C(=O)O` [TAT-BH3] (Ac-RKKRR[Orn]RRREIWIAQELRRIGDEFNAYYAR-OH) as the compound, how does the “change in ankle circumference” value ([1]; day 2 after K/B×N serum, 2 mg/kg i.p.) read?
A: Its value is 0.1 mm.

Q: What about the “reduction of development of arthritis” value ([1]; as compared to TAT-inactive BH3 peptide) of the same compound?
A: The value was 72%.

Q: And the “reduction of development of arthritis” value ([1]; as compared to saline)?
A: Its value is 80%.

Q: What about the “reduction in PMN score” value ([2]; as compared to TAT-inactive BH3 or saline) of the same compound?
A: The value was 69%.

Q: And the “decrease in bone erosion score” value [2, 8]?
A: Its value is 71%.

Q: What about the reduction in inflammation [2, 8] of the same compound?
A: Its reduction in inflammation is 72%.

Q: What about the “suppression of pannus formation” value [2, 8] of the same compound?
A: Its value is 79%.

Q: And the “average number of macrophages in the synovial lining” value [3, 9]?
A: Its value is “no statistical difference”.

Q: What about the “decrease in numbers of macrophages within the pannus region” value [3, 9] of the same compound?
A: Its value is 68%.

Q: What about the “decrease in numbers of macrophages within the pannus region” value ([3]; as compared to saline) of the same compound?
A: Its value is 77%.

Q: What about the IL-1β [4, 10] of the same compound?
A: The IL-1β was 522 ± 127.

Q: What about the KC [4, 10] of the same compound?
A: Its KC is 308 ± 78.

Q: What about the MCP-1 [4, 10] of the same compound?
A: Its MCP-1 is 131 ± 28.

Q: What about the MMP-3 [4, 10] of the same compound?
A: Its MMP-3 is 9 ± 3.

Q: And the TNFα [4, 10]?
A: Its TNFα is 4.5 ± 0.3.

Q: What about the “change in level of TNFα” value ([4]; vs saline or TAT-inactive BH3) of the same compound?
A: Its value is “no change”.

Q: What about the “decrease in level of IL-1β” value ([4]; vs saline or TAT-inactive BH3) of the same compound?
A: Its value is 37%.

Q: And the “levels of MMP-3 reduced” value ([4]; vs saline or TAT-inactive BH3)?
A: The value was 47%.

Q: And the “production of KC diminished” value ([4]; vs saline or TAT-inactive BH3)?
A: The value was 28%.

Q: And the “production of MCP-1 diminished” value ([4]; vs saline or TAT-inactive BH3)?
A: Its value is 47%.

Q: And the ALT levels [5, 11]?
A: The ALT levels was “statistical difference”.

Q: What about the BUN levels [5, 11] of the same compound?
A: Its BUN levels is “statistical difference”.

Q: What about the “increase in ALP levels” value [5, 9] of the same compound?
A: The value was 1.7 fold.

Q: And the “increase in AST levels” value [5, 9]?
A: Its value is 1.5 fold.

Q: What about the “increase in ALP levels” value ([5]; as compared to saline) of the same compound?
A: The value was 1.4 fold.

Q: And the “increase in AST levels” value ([5]; as compared to saline)?
A: The value was 1.3 fold.

Q: What about the liver histology ([5]; liver sections of arthritic mice) of the same compound?
A: Its liver histology is “no gross histologic abnormalities”.

Q: What about the “affinity for Mcl-1” value [6] of the same compound?
A: Its value is “high affinity”.

Q: And the number of splenocytes [7]?
A: The number of splenocytes was “did not reduce”.
